In ChEMBL document CHEMBL6182920, “The Discovery of C7-Substituted Norbornyl Bisamides as RXFP1 Small Molecule Agonists” (J Med Chem, 2025):
In brackets after ≈: the same amount, converted by molar mass.

Key:
[1] = Volume of distribution at steady state in Sprague-Dawley rat at 1 mg/kg, iv; assay type: ADME, organism-based; settings: in vivo, read-out: Vdss
Relaxin receptor 1 [2] = target: T1, Relaxin receptor 1 (Rattus norvegicus, UniProt Q6R6I6); assay: Agonist activity at rat RXFP1 stably expressed in HEK293 cells assessed as intracellular cAMP accumulation incubated for 30 mins by HTRF assay; assay type: cell-based
T1 sequence (Q6R6I6 whole entry): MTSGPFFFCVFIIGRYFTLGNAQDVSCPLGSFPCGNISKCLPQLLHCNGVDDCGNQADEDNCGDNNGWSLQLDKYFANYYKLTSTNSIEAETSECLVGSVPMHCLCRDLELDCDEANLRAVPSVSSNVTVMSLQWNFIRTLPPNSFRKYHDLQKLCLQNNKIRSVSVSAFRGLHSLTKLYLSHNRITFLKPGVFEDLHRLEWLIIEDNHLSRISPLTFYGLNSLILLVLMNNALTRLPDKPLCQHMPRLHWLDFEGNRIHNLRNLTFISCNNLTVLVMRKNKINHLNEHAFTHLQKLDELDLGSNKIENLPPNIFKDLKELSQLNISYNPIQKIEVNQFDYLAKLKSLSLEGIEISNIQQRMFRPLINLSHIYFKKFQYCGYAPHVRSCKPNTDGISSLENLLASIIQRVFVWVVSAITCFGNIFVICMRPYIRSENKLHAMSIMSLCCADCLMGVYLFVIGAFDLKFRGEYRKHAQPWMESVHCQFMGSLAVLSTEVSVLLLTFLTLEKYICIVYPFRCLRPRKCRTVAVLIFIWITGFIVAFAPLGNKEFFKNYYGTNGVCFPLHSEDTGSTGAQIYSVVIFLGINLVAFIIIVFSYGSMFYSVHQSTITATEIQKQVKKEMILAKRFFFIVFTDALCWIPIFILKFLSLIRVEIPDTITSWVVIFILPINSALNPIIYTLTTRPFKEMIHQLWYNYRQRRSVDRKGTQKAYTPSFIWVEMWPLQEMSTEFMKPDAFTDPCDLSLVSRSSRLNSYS

Cytochrome P450 2D6 = Cytochrome P450 2D6 (Homo sapiens, UniProt P10635); assay: Inhibition of CYP2D6 (unknown origin)
Chain of Cytochrome P450 2D6 (P10635 whole entry): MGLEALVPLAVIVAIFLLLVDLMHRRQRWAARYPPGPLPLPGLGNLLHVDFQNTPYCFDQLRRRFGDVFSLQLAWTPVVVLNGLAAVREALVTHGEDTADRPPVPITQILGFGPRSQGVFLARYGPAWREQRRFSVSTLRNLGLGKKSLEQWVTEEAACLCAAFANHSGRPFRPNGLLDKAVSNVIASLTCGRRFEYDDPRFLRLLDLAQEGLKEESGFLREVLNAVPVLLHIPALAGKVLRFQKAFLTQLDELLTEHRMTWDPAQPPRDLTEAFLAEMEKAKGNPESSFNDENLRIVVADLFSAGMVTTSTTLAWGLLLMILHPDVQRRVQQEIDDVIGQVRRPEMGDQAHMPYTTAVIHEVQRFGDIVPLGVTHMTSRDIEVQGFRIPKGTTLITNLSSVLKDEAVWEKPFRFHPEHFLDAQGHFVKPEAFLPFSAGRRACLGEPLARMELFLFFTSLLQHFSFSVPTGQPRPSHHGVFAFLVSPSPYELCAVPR

[3] = Clearance in Sprague-Dawley rat at 1 mg/kg, iv; assay type: ADME, organism-based; settings: in vivo
Cytochrome P450 2C19 = Cytochrome P450 2C19 (Homo sapiens, UniProt P33261); assay: Inhibition of CYP2C19 (unknown origin)
Chain of Cytochrome P450 2C19 (P33261 whole entry): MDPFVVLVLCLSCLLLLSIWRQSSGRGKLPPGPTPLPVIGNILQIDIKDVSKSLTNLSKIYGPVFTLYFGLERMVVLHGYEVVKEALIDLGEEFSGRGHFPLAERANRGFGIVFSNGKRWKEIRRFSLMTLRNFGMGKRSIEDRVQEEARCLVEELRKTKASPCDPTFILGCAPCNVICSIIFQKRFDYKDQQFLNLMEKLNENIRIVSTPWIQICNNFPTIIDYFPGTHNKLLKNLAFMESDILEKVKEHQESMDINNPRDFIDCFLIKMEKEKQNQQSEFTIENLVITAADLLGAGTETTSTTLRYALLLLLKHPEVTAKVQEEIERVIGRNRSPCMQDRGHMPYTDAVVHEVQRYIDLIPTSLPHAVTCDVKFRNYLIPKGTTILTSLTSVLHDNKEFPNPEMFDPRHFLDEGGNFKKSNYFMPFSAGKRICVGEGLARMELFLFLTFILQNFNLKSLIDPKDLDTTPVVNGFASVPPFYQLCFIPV

[4] = Thermodynamic aqueous solubility of compound in phosphate buffer at pH 7.4 by reversed-phase ultrahigh pressure liquid chromatography; assay type: physicochemical; settings: phosphate buffer, read-out: Therm_solubility
[5] = target: T2, Nuclear receptor subfamily 1 group I member 2 (Homo sapiens, UniProt O75469); assay: Activation of PXR (unknown origin)
T2 sequence (O75469 whole entry): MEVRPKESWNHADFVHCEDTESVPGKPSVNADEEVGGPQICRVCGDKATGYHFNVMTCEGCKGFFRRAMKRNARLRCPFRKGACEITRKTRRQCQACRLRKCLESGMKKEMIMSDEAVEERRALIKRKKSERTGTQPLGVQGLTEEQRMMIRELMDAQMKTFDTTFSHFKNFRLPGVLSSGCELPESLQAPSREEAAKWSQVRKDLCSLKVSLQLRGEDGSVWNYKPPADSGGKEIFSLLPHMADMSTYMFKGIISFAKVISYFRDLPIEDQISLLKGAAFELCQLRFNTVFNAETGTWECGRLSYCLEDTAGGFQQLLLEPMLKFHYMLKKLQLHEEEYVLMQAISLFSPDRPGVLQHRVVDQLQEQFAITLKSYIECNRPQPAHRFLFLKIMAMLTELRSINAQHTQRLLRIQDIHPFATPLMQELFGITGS

Rattus norvegicus = assay: Chronotropic effect in isoflurane-anesthetized male naive Sprague-Dawley rat model assessed as increase in heart rate at 5 mg/kg/min, iv measured after 60 mins; assay type: functional; settings: 1 h
[6] = Microsomal stability in human liver microsomes assessed as half life; assay type: ADME, Microsome
[7] = Microsomal stability in rat liver microsomes assessed as half life; assay type: ADME, Microsome
Relaxin receptor 1 [8] = target: T3, Relaxin receptor 1 (Homo sapiens, UniProt Q9HBX9); assay: Agonist activity at human RXFP1 stably expressed in HEK293 cells assessed as intracellular cAMP accumulation incubated for 30 mins by HTRF assay
T3 sequence (Q9HBX9 whole entry): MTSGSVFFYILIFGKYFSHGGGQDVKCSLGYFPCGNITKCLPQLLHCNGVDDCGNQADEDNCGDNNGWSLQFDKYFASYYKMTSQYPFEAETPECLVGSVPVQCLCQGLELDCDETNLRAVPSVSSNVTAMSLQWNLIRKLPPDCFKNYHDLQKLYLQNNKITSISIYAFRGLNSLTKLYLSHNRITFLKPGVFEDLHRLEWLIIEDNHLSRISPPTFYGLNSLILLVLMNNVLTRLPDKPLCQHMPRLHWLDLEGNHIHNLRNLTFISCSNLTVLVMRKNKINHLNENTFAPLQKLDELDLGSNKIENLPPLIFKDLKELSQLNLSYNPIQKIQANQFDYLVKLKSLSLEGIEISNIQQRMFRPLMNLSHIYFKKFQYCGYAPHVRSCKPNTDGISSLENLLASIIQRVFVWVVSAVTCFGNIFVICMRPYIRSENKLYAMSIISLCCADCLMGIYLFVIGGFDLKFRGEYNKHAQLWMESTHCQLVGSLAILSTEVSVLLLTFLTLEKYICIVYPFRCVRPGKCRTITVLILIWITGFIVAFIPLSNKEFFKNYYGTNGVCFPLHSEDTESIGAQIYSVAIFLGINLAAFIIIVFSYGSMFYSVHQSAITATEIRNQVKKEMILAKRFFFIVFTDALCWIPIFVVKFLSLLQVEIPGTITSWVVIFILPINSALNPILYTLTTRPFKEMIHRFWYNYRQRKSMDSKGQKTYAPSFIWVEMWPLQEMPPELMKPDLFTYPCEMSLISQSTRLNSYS

Vd [1]: 0.09 L/kg
EC50 (Relaxin receptor 1 [2]): 0.045 µM
IC50 (Cytochrome P450 2D6): > 20 µM
clearance [3]: 2.5 mL/min/kg
IC50 (Cytochrome P450 2C19): 17 µM
solubility thermodynamic [4]: 130 µg/mL (≈ 179 µM)
EC50 [5]: > 50 µM
half-life [6]: > 2 h
half-life [7]: > 2 h
EC50 (Relaxin receptor 1 [8]): 0.002 µM
Compound: CNC(=O)OC(C(=O)O)c1ccc(F)c(-c2ccc(OC)c(C(=O)N[C@H]3[C@@H](C(=O)Nc4ccc(F)c(C(F)(F)F)c4)[C@H]4CC[C@@H]3/C4=C\C3CC3)c2)c1 (stereo in doubt; 39)
Activity (Rattus norvegicus): 25%
